Data on four substances can be found in patent US20050245471A1, “Combination products for use in antitumoral treatment” (priority 2002, published 2005).

The series relates to CSF-1. The series can be described thus: Quantification of CSF-1 secreted by NS2T2A1 cells transfected with oligonucleotides (ELISA). It is filed as cell-based, human. The note with it: 250 nM oligonucleotide with 2.4 μg/ml cytofectin GS-3815, ELISA of culture medium 24 h after beginning of transfection, relative to non-transfected cell line. The method, then:
Line NS2T2A1 is a line of cells from the human breast (Ma et al., Int. J. Cancer, 1998, 78: 112-119) obtained by mammoplasty, transformed by SV40. This line secretes CSF-1 linearly as a function of the cell growth.
The cells were cultivated in medium M5 (Gibco, France) complemented with 5% of -horse serum as described by Ma et al. (Int. J. Cancer, 1998, 78:112-119). Seeding was done in 6 well plates at a concentration, of 5×10^5 cells/ml/well. Transfection by oligonucleotides was done 24 h later, when the cells were in the exponential growth phase and they had reached 60% to 80% of confluence.
Transfection by oligonucleotides was done using cytofectin GS-3815 (Glen research, Sterling. Va.). Oligonucleotides and cytofectin were diluted separately in polystyrene tubes with the opti-MEM medium (Gibco, France), and the cytofectin was mixed with an equal volume of diluted oligonucleotides. The mix was left for 15 minutes at ambient temperature to enable the formation of oligonucleotide/cytofectin complexes. Finally, the M5 medium was added to the solution to obtain final concentrations equal to 2.4 μg/ml of cytofectin and 250 nM of oligonucleotides. All transfections were done in the M5 medium and in a final volume of 1 ml. Oligonucleotide/cytofectin complexes were left in contact with cells for 24 h. All steps described above were done under sterile conditions.
All experiments were done in triplicate for each concentration of oligonucleotides.
The quantity of CSF-1 secreted in the culture medium of NS2T2A1 cells was-measured by an ELISA test, 24 h after the beginning of the transfection, referring strictly to the protocol described by the supplier (R&D systems, Europe Ltd, UK). The results are expressed as a percentage of CSF-1 expressed by the transfected cells with respect to the CSF-1 expressed by a non-transfected cell line.
In general terms: ELISA stands for enzyme-linked immunosorbent assay.

Regarding “SEQ ID No. 2: phosphorothioate oligonucleotide with pdU/pdC base substitutions, hybridising region 135-152 of SEQ ID No. 1 (CSF-1) (GGGAGGGUGCUGUACCGA; listed as RNA, chemistry not fully specified)”, the “Percentage of CSF-1 expressed” value stood at 70%.
In the case of “SEQ ID No. 3: phosphorothioate oligonucleotide with pdU/pdC base substitutions, hybridising region 284-301 of SEQ ID No. 1 (CSF-1) (UCUGGAGCAGGUUAAU; listed as RNA, chemistry not fully specified)” it was 39%; in that of “SEQ ID No. 5: phosphorothioate oligonucleotide with pdU/pdC base substitutions, hybridising region 409-426 of SEQ ID No. 1 (CSF-1) (UUGUGGCGGUUAGGGUAG; listed as RNA, chemistry not fully specified)”, 90%; in that of “SEQ ID No. 4: phosphorothioate oligonucleotide with pdU/pdC base substitutions, hybridising region 341-358 of SEQ ID No. 1 (CSF-1) (ACACGAUGGAAUUCUUCC; listed as RNA, chemistry not fully specified)”, 50%.
